Each compound was assayed on HBV (assay: HBV-DNA antiviral assay using HepG2.117 cells (intracellular HBV DNA by qPCR)). Conditions: Hepatitis B virus, 72 h, HBV DNA inhibition, 3 days incubation, 2% DMSO.
Type: cell-based, genotype D HBV
Procedure, shortened: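 Endpoints are intracellular HBV DNA by qPCR (interpolated from a gBlock standard curve) and ATP-based viability in duplicate plates. Doxycycline-free HepG2.117 Tet-off cells received compounds (9 concentrations, 4-fold steps, 2% DMSO) for 3 days. Inhibition normalised to DMSO wells; EC50/EC90/CC50 by curve fitting.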

First: CNc1n[nH]c2cc(-n3c(=O)c4c(n5ncc(CC(C)C)c35)CN(C(=O)c3ccc(Br)c(C(F)(F)F)c3)[C@@H](C)C4)ccc12 (stereo in doubt) [Compound 61b, rac-(11S)-12-[4-bromo-3-(trifluoromethyl)benzoyl]-5-isobutyl-11-methyl-7-[3-(methylamino)-1H-indazol-6-yl]-2,3,7,12-tetrazatricyclo[7.4.0.0^2,6]trideca-1(9),3,5-trien-8-one]
Second: Cc1nn[nH]c1-c1ccc(-n2c(=O)c3c(n4ncc(CC(C)C)c24)CN(C(=O)c2ccc(Br)c(C(F)(F)F)c2)[C@H](C)C3)cc1 (stereo in doubt) [Compound 62a, rac-(11R)-12-[4-bromo-3-(trifluoromethyl)benzoyl]-5-isobutyl-11-methyl-7-[4-(4-methyl-1H-triazol-5-yl)phenyl]-2,3,7,12-tetrazatricyclo[7.4.0.0^2,6]trideca-1(9),3,5-trien-8-one]
The EC50 of the first is higher: 50 to 500 nM for the first, less than 50 nM for the second. The second is the more potent here.

Compared with Cc1nn[nH]c1-c1ccc(-n2c(=O)c3c(n4ncc(CC(C)C)c24)CN(C(=O)c2ccc(Br)c(C(F)(F)F)c2)[C@@H](C)C3)cc1 (stereo in doubt) [Compound 62b, rac-(11S)-12-[4-bromo-3-(trifluoromethyl)benzoyl]-5-isobutyl-11-methyl-7-[4-(4-methyl-1H-triazol-5-yl)phenyl]-2,3,7,12-tetrazatricyclo[7.4.0.0^2,6]trideca-1(9),3,5-trien-8-one], Cc1nn[nH]c1-c1ccc(-n2c(=O)c3c(n4ncc(CC(C)C)c24)CN(C(=O)c2ccc(Cl)c(C(F)(F)F)c2)[C@H](C)C3)cc1 (stereo in doubt) [Compound 63a, rac-(11R)-12-[4-chloro-3-(trifluoromethyl)benzoyl]-5-isobutyl-11-methyl-7-[4-(4-methyl-1H-triazol-5-yl)phenyl]-2,3,7,12-tetrazatricyclo[7.4.0.0^2,6]trideca-1(9),3,5-trien-8-one] is lower in EC50: 50 to 500 nM for the first, less than 50 nM for the second.

First: Cc1nn[nH]c1-c1ccc(-n2c(=O)c3c(n4ncc(CC(C)C)c24)CN(C(=O)c2ccc(Cl)c(C(F)(F)F)c2)[C@@H](C)C3)cc1 (stereo in doubt) [Compound 63b, rac-(11S)-12-[4-chloro-3-(trifluoromethyl)benzoyl]-5-isobutyl-11-methyl-7-[4-(4-methyl-1H-triazol-5-yl)phenyl]-2,3,7,12-tetrazatricyclo[7.4.0.0^2,6]trideca-1(9),3,5-trien-8-one]
Second: Cc1nnc(-c2ccc(-n3c(=O)c4c(n5ncc(CC(C)C)c35)CN(C(=O)c3ccc(Cl)c(C(F)(F)F)c3)[C@H](C)C4)cc2)[nH]1 (stereo in doubt) [Compound 65a, rac-(11R)-12-[4-chloro-3-(trifluoromethyl)benzoyl]-5-isobutyl-11-methyl-7-[4-(5-methyl-4H-1,2,4-triazol-3-yl)phenyl]-2,3,7,12-tetrazatricyclo[7.4.0.0^2,6]trideca-1(9),3,5-trien-8-one]
The EC50 of the first is higher: 500 to 5000 nM for the first, less than 50 nM for the second. The second is the more potent here.

First: Cc1nn[nH]c1-c1ccc(-n2c(=O)c3c(n4ncc(CC(C)C)c24)CN(C(=O)c2ccc(Br)c(Cl)c2)[C@H](C)C3)cc1 (stereo in doubt) [Compound 64a, rac-(11R)-12-(4-bromo-3-chloro-benzoyl)-5-isobutyl-11-methyl-7-[4-(4-methyl-1H-triazol-5-yl)phenyl]-2,3,7,12-tetrazatricyclo[7.4.0.0^2,6]trideca-1(9),3,5-trien-8-one]
Second: Cc1nn[nH]c1-c1ccc(-n2c(=O)c3c(n4ncc(CC(C)C)c24)CN(C(=O)c2ccc(Br)c(Cl)c2)[C@@H](C)C3)cc1 (stereo in doubt) [Compound 64b, rac-(11S)-12-(4-bromo-3-chloro-benzoyl)-5-isobutyl-11-methyl-7-[4-(4-methyl-1H-triazol-5-yl)phenyl]-2,3,7,12-tetrazatricyclo[7.4.0.0^2,6]trideca-1(9),3,5-trien-8-one]
The EC50 of the first is lower: less than 50 nM for the first, 50 to 500 nM for the second.

First: Cc1nnc(-c2ccc(-n3c(=O)c4c(n5ncc(CC(C)C)c35)CN(C(=O)c3ccc(Cl)c(C(F)(F)F)c3)[C@@H](C)C4)cc2)[nH]1 (stereo in doubt) [Compound 65b, rac-(11S)-12-[4-chloro-3-(trifluoromethyl)benzoyl]-5-isobutyl-11-methyl-7-[4-(5-methyl-4H-1,2,4-triazol-3-yl)phenyl]-2,3,7,12-tetrazatricyclo[7.4.0.0^2,6]trideca-1(9),3,5-trien-8-one]
Second: Cc1nnc(-c2ccc(-n3c(=O)c4c(n5ncc(CC(C)C)c35)CN(C(=O)c3ccc(Br)c(Cl)c3)[C@H](C)C4)cc2)[nH]1 (stereo in doubt) [Compound 66a, rac-(11R)-12-(4-bromo-3-chloro-benzoyl)-5-isobutyl-11-methyl-7-[4-(5-methyl-4H-1,2,4-triazol-3-yl)phenyl]-2,3,7,12-tetrazatricyclo[7.4.0.0^2,6]trideca-1(9),3,5-trien-8-one]
The EC50 of the first is higher: 500 to 5000 nM for the first, less than 50 nM for the second.

First: Cc1nnc(-c2ccc(-n3c(=O)c4c(n5ncc(CC(C)C)c35)CN(C(=O)c3ccc(Br)c(Cl)c3)[C@@H](C)C4)cc2)[nH]1 (stereo in doubt) [Compound 66b, rac-(11S)-12-(4-bromo-3-chloro-benzoyl)-5-isobutyl-11-methyl-7-[4-(5-methyl-4H-1,2,4-triazol-3-yl)phenyl]-2,3,7,12-tetrazatricyclo[7.4.0.0^2,6]trideca-1(9),3,5-trien-8-one]
Second: CC(C)Cc1cnn2c3c(c(=O)n(-c4ccc(-c5nncn5C)cc4)c12)C[C@@H](C)N(C(=O)c1ccc(Br)c(Cl)c1)C3 (stereo in doubt) [Compound 68a, rac-(11R)-12-(4-bromo-3-chloro-benzoyl)-5-isobutyl-11-methyl-7-[4-(4-methyl-1,2,4-triazol-3-yl)phenyl]-2,3,7,12-tetrazatricyclo[7.4.0.0^2,6]trideca-1(9),3,5-trien-8-one]
The EC50 of the first is higher: 50 to 500 nM for the first, less than 50 nM for the second.

First: CC(C)Cc1cnn2c3c(c(=O)n(-c4ccc(-c5nncn5C)cc4)c12)C[C@@H](C)N(C(=O)c1ccc(Cl)c(C(F)(F)F)c1)C3 (stereo in doubt) [Compound 67a, rac-(11R)-12-[4-chloro-3-(trifluoromethyl)benzoyl]-5-isobutyl-11-methyl-7-[4-(4-methyl-1,2,4-triazol-3-yl)phenyl]-2,3,7,12-tetrazatricyclo[7.4.0.0^2,6]trideca-1(9),3,5-trien-8-one]
Second: CC(C)Cc1cnn2c3c(c(=O)n(-c4ccc(-c5nncn5C)cc4)c12)C[C@H](C)N(C(=O)c1ccc(Cl)c(C(F)(F)F)c1)C3 (stereo in doubt) [Compound 67b, rac-(11S)-12-[4-chloro-3-(trifluoromethyl)benzoyl]-5-isobutyl-11-methyl-7-[4-(4-methyl-1,2,4-triazol-3-yl)phenyl]-2,3,7,12-tetrazatricyclo[7.4.0.0^2,6]trideca-1(9),3,5-trien-8-one]
The EC50 of the first is lower: less than 50 nM for the first, 50 to 500 nM for the second. The first is the more potent here.

First: CC(C)Cc1cnn2c3c(c(=O)n(-c4ccc(-c5nncn5C)cc4)c12)C[C@H](C)N(C(=O)c1ccc(Br)c(Cl)c1)C3 (stereo in doubt) [Compound 68b, rac-(11S)-12-(4-bromo-3-chloro-benzoyl)-5-isobutyl-11-methyl-7-[4-(4-methyl-1,2,4-triazol-3-yl)phenyl]-2,3,7,12-tetrazatricyclo[7.4.0.0^2,6]trideca-1(9),3,5-trien-8-one]
Second: C[C@@H]1Cc2c(n3ncc(Cc4ccccc4)c3n(-c3ccc(-c4nnn[nH]4)cc3)c2=O)CN1C(=O)c1ccc(Br)c(C(F)(F)F)c1 (stereo in doubt) [Compound 71a, rac-(11R)-5-benzyl-12-[4-bromo-3-(trifluoromethyl)benzoyl]-11-methyl-7-[4-(1H-tetrazol-5-yl)phenyl]-2,3,7,12-tetrazatricyclo[7.4.0.0^2,6]trideca-1(9),3,5-trien-8-one]
The EC50 of the first is lower: 50 to 500 nM for the first, 500 to 5000 nM for the second.

CNC(=O)c1cnc(-n2c(=O)c3c(n4ncc(Cc5ccccc5)c24)CN(C(=O)c2ccc(Br)c(C(F)(F)F)c2)[C@H](C)C3)nc1 (stereo in doubt) [Compound 69a, N-methyl-2-[rac-(11R)-5-benzyl-12-[4-bromo-3-(trifluoromethyl)benzoyl]-11-methyl-8-oxo-2,3,7,12-tetrazatricyclo[7.4.0.0^2,6]trideca-1(9),3,5-trien-7-yl]pyrimidine-5-carboxamide] and CNC(=O)c1cnc(-n2c(=O)c3c(n4ncc(Cc5ccccc5)c24)CN(C(=O)c2ccc(Br)c(C(F)(F)F)c2)[C@@H](C)C3)nc1 (stereo in doubt) [Compound 69b, N-methyl-2-[rac-(11S)-5-benzyl-12-[4-bromo-3-(trifluoromethyl)benzoyl]-11-methyl-8-oxo-2,3,7,12-tetrazatricyclo[7.4.0.0^2,6]trideca-1(9),3,5-trien-7-yl]pyrimidine-5-carboxamide] cannot be ordered by EC50: less than 50 nM for the first, less than 50 nM for the second.

First: C[C@@H]1Cc2c(n3ncc(Cc4ccccc4)c3n(-c3ccc(-n4ccc(C(F)(F)F)n4)cc3)c2=O)CN1C(=O)c1ccc(Br)c(C(F)(F)F)c1 (stereo in doubt) [Compound 70a, rac-(11R)-5-benzyl-12-[4-bromo-3-(trifluoromethyl)benzoyl]-11-methyl-7-[4-[3-(trifluoromethyl)pyrazol-1-yl]phenyl]-2,3,7,12-tetrazatricyclo[7.4.0.0^2,6]trideca-1(9),3,5-trien-8-one]
Second: C[C@H]1Cc2c(n3ncc(Cc4ccccc4)c3n(-c3ccc(-n4ccc(C(F)(F)F)n4)cc3)c2=O)CN1C(=O)c1ccc(Br)c(C(F)(F)F)c1 (stereo in doubt) [Compound 70b, rac-(11S)-5-benzyl-12-[4-bromo-3-(trifluoromethyl)benzoyl]-11-methyl-7-[4-[3-(trifluoromethyl)pyrazol-1-yl]phenyl]-2,3,7,12-tetrazatricyclo[7.4.0.0^2,6]trideca-1(9),3,5-trien-8-one]
The EC50 of the first is lower: 50 to 500 nM for the first, 500 to 5000 nM for the second.

C[C@H]1Cc2c(n3ncc(Cc4ccccc4)c3n(-c3ccc(-c4nnn[nH]4)cc3)c2=O)CN1C(=O)c1ccc(Br)c(C(F)(F)F)c1 (stereo in doubt) [Compound 71b, rac-(11S)-5-benzyl-12-[4-bromo-3-(trifluoromethyl)benzoyl]-11-methyl-7-[4-(1H-tetrazol-5-yl)phenyl]-2,3,7,12-tetrazatricyclo[7.4.0.0^2,6]trideca-1(9),3,5-trien-8-one] showed an EC50 greater than 5000 nM.

Source: patent US11820773B2, “Tricyclic compounds” (ALIGOS THERAPEUTICS, INC., priority 2020, dated 2023)
